The assay has as its target IRAK4 (Homo sapiens (Human), UniProt Q9NWZ3). The assay is described as follows: IRAK4 kinase activity, IMAP fluorescence polarization assay. The following applies: 100 μM ATP, 0.5 nM GST tagged IRAK4; read-out: IRAK4 IC50. Type of assay: biochemical. As for the experimental part: The kinase activity of IRAK4 is determined by its ability to catalyze the phosphorylation of a fluorescent polypeptide substrate. The extent of phosphorylation is measured using IMAP technology (Molecular Devices) where the phosphorylated fluorescent substrate binds to the large M(III)-based nanoparticles which reduces the rotational speed of the substrate and thus increases its fluorescent polarization (FP).
Assay Procedure: A 20 μl reaction mixture contains 10 mM TriHCl, pH 7.2, 0.5 nM GST tagged IRAK4 (SignalChem), 100 nM fluorescent peptide substrate (RP7030, Molecular Devices), 100 μM ATP, 1 mM DTT, 1 mM MgCl2, and 0.01% Tween 20. The reaction is initiated by the addition of ATP. After incubation for 30 minutes at 25° C., 60 μl of Progressive IMAP Reagent (Molecular Devices) is added to stop the reaction. Change in RP7030's FP is determined by a FP reader (Analyst HT, LJL BioSystems)
(In general: In fluorescence polarisation assays a small probe gives low polarisation when free and higher when bound to something large.)

Structures can show the parent of a compound that is named as a salt.

IRAK4, sequence (Q9NWZ3 whole entry): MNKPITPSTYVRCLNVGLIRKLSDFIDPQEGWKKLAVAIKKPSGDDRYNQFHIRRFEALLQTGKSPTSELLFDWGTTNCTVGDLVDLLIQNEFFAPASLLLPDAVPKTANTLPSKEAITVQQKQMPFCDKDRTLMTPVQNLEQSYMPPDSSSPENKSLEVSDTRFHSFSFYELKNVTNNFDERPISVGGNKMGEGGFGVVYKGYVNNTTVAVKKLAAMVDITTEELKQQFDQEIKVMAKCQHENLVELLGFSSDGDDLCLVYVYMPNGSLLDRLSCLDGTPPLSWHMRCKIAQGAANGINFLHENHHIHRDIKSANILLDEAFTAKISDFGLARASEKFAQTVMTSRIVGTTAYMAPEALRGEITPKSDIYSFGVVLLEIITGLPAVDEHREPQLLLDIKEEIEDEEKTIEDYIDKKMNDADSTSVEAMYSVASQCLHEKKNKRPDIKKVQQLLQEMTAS

In the case of `C[C@@H]1CC[C@@H](Nc2nc(N3CCOCC3)[nH]c(=O)c2-c2ccc3ccccc3n2)CN1` (racemic) [Example 121, 6-(methylpiperidin-3-yl)amino-2-morpholino-5-(quinolin-2-yl)pyrimidin-4(3H)-one.HCl], the IC50 (in general, the concentration that inhibits the measured activity by half) came out at 38 nM.

On to `C[C@H]1CC[C@@H](Nc2nc(N3CCOCC3)[nH]c(=O)c2-c2ccc3ccccc3n2)CN1` (racemic) [Example 122, 6-(methylpiperidin-3-yl)amino-2-morpholino-5-(quinolin-2-yl)pyrimidin-4(3H)-one.HCl], for which the IC50 came out at 541 nM.

On to `C[C@H]1CC[C@@H](Nc2nc(N3CCOCC3)[nH]c(=O)c2-c2nc3ccccc3s2)CN1` (racemic) [Example 123, 5-(benzo[d]thiazol-2-yl)-6((6-methylpiperidin-3-yl)amino)-2-morpholinopyrimidin-4(3H)-one.HCl], for which the IC50 was found to be 847 nM.

In the case of `C[C@@H]1CC[C@@H](Nc2nc(N3CCOCC3)[nH]c(=O)c2-c2nc3ccccc3s2)CN1` (racemic) [Example 124, 5-(benzo[d]thiazol-2-yl)-6((6-methylpiperidin-3-yl)amino)-2-morpholinopyrimidin-4(3H)-one.HCl], the IC50 amounted to 114 nM.

On to `N[C@@H]1CCCC[C@H]1Nc1cccc2sc(-c3c(N[C@@H]4CCCNC4)nc(N4CCOCC4)[nH]c3=O)nc12` (racemic) [Example 352, 5-(4-[[(trans, rac)-2-aminocyclohexyl]amino]-1,3-benzothiazol-2-yl)-2-(morpholin-4-yl)-6-[[(3R)-piperidin-3-yl]amino]-3,4-dihydropyrimidin-4-one], for which the IC50 turned out to be 5400 nM.

For the compound `N[C@H]1CCCC[C@H]1Nc1cccc2sc(-c3c(N[C@@H]4CCCNC4)nc(N4CCOCC4)[nH]c3=O)nc12` (racemic) [Example 353, 5-[4-[(cis, rac)-(2-aminocyclohexyl)amino]-1,3-benzothiazol-2-yl]-2-(morpholin-4-yl)-6-[[(3R)-piperidin-3-yl]amino]-3,4-dihydropyrimidin-4-one], the IC50 came to 24 nM.

With `O=c1[nH]c(NC2CCC2)nc(N[C@@H]2C[C@H](CO)[C@@H](O)[C@H]2O)c1-c1nc2ccccc2s1` [Example 1, 5-(Benzo[d]thiazol-2-yl)-2-(cyclobutylamino)-6-((1R,2S,3R,4R)-2,3-dihydroxy-4-(hydroxymethyl)cyclopentylamino)pyrimidin-4(3H)-one.HCl], the IC50 was found to be 20 nM.

For `Nc1nc(N[C@@H]2C[C@H](CO)[C@@H](O)[C@H]2O)c(-c2nc3ccccc3s2)c(=O)[nH]1` [Example 2, 2-Amino-5-(benzo[d]thiazol-2-yl)-6-((1R,2S,3R,4R)-2,3-dihydroxy-4-(hydroxymethyl)cyclopentylamino)pyrimidin-4(3H)-one.HCl], the IC50 turned out to be 694 nM.

Turning to `O=c1[nH]c(NC2CCCC2)nc(N[C@@H]2C[C@H](CO)[C@@H](O)[C@H]2O)c1-c1nc2ccccc2s1` [Example 4, 5-(Benzo[d]thiazol-2-yl)-2-(cyclopentylamino)-6-((1R,2S,3R,4R)-2,3-dihydroxy-4-(hydroxymethyl)cyclopentylamino)pyrimidin-4(3H)-one.HCl], the IC50 stood at 92 nM.

`CC(C)Nc1nc(N[C@@H]2C[C@H](CO)[C@@H](O)[C@H]2O)c(-c2nc3ccccc3s2)c(=O)[nH]1` [Example 5, 5-(Benzo[d]thiazol-2-yl)-6-((1R,2S,3R,4R)-2,3-dihydroxy-4-(hydroxymethyl)cyclopentylamino)-2-(isopropylamino)pyrimidin-4(3H)-one.HCl]: the concentration for half-maximal inhibition (IC50) was 151 nM.

As for `O=c1[nH]c(NC2CCCCC2)nc(N[C@@H]2C[C@H](CO)[C@@H](O)[C@H]2O)c1-c1nc2ccccc2s1` [Example 6, 5-(Benzo[d]thiazol-2-yl)-2-(cyclohexylamino)-6-((1R,2S,3R,4R)-2,3-dihydroxy-4-(hydroxymethyl)cyclopentylamino)pyrimidin-4(3H)-one.HCl], the half-inhibitory concentration (IC50) came out at 636 nM.

As for `O=c1[nH]c(N[C@@H]2C[C@H](CO)[C@@H](O)[C@H]2O)c(-c2nc3ccccc3s2)c(=O)[nH]1` [Example 7, 5-(Benzo[d]thiazol-2-yl)-6-((1R,2S,3R,4R)-2,3-dihydroxy-4-(hydroxymethyl)cyclopentylamino)pyrimidine-2,4(1H,3H)-dione.HCl], the IC50 stood at 1490 nM.

Consider `O=c1[nH]c(NC2CCOCC2)nc(N[C@@H]2C[C@H](CO)[C@@H](O)[C@H]2O)c1-c1nc2ccccc2s1` [Example 8, 5-(Benzo[d]thiazol-2-yl)-6-((1R,2S,3R,4R)-2,3-dihydroxy-4-(hydroxymethyl)cyclopentylamino)-2-(tetrahydro-2H-pyran-4-ylamino)pyrimidin-4(3H)-one.HCl], for which the IC50 was 575 nM.

For `O=c1[nH]c(NC2CC(F)(F)C2)nc(N[C@@H]2C[C@H](CO)[C@@H](O)[C@H]2O)c1-c1nc2ccccc2s1` [Example 9, 5-(Benzo[d]thiazol-2-yl)-2-(3,3-difluorocyclobutylamino)-6-((1R,2S,3R,4R)-2,3-dihydroxy-4-(hydroxymethyl)cyclopentylamino)pyrimidin-4(3H)-one.HCl], the IC50 came to 324 nM.

Turning to `CS(=O)(=O)N1CCC(Nc2nc(N[C@@H]3C[C@H](CO)[C@@H](O)[C@H]3O)c(-c3nc4ccccc4s3)c(=O)[nH]2)CC1` [Example 10, 5-(Benzo[d]thiazol-2-yl)-6-((1R,2S,3R,4R)-2,3-dihydroxy-4-(hydroxymethyl)cyclopentylamino)-2-(1-(methylsulfonyl)piperidin-4-ylamino)pyrimidin-4(3H)-one.HCl], the IC50 worked out at 545 nM.

Regarding `O=c1[nH]c(NC2COC2)nc(N[C@@H]2C[C@H](CO)[C@@H](O)[C@H]2O)c1-c1nc2ccccc2s1` [Example 11, 5-(Benzo[d]thiazol-2-yl)-6-((1R,2S,3R,4R)-2,3-dihydroxy-4-(hydroxymethyl)cyclopentylamino)-2-(oxetan-3-ylamino)pyrimidin-4(3H)-one.HCl], the IC50 was 892 nM.

As for `CS(=O)(=O)N1CCN(c2nc(N[C@@H]3C[C@H](CO)[C@@H](O)[C@H]3O)c(-c3nc4ccccc4s3)c(=O)[nH]2)CC1` [Example 12, 5-(Benzo[d]thiazol-2-yl)-6-((1R,2S,3R,4R)-2,3-dihydroxy-4-(hydroxymethyl)cyclopentylamino)-2-(4-(methylsulfonyl)piperazin-1-yl)pyrimidin-4(3H)-one.HCl], the IC50 is 25 nM.

For `O=c1[nH]c(N2CC3(COC3)C2)nc(N[C@@H]2C[C@H](CO)[C@@H](O)[C@H]2O)c1-c1nc2ccccc2s1` [Example 13, 5-(Benzo[d]thiazol-2-yl)-6-((1R,2S,3R,4R)-2,3-dihydroxy-4-(hydroxymethyl)cyclopentylamino)-2-(2-oxa-6-azaspiro[3.3]heptan-6-yl)pyrimidin-4(3H)-one.HCl], the IC50 worked out at 8.9 nM.

Regarding `CS(=O)(=O)N1CC2(CN(c3nc(N[C@@H]4C[C@H](CO)[C@@H](O)[C@H]4O)c(-c4nc5ccccc5s4)c(=O)[nH]3)C2)C1` [Example 14, 5-(Benzo[d]thiazol-2-yl)-6-((1R,2S,3R,4R)-2,3-dihydroxy-4-(hydroxymethyl)cyclopentylamino)-2-(6-(methylsulfonyl)-2,6-diazaspiro[3.3]heptan-2-yl)pyrimidin-4(3H)-one.HCl], the IC50 was found to be 5.6 nM.

`O=c1[nH]c(OC2CCC2)nc(N[C@@H]2C[C@H](CO)[C@@H](O)[C@H]2O)c1-c1nc2ccccc2s1` [Example 15, 5-(Benzo[d]thiazol-2-yl)-2-cyclobutoxy-6-((1R,2S,3R,4R)-2,3-dihydroxy-4-(hydroxymethyl)cyclopentylamino)pyrimidin-4(3H)-one.HCl]: the IC50 was found to be 1690 nM.

`O=c1[nH]c(N2CC3(CNC3)C2)nc(N[C@@H]2C[C@H](CO)[C@@H](O)[C@H]2O)c1-c1nc2ccccc2s1` [Example 16, 5-(Benzo[d]thiazol-2-yl)-6-((1R,2S,3R,4R)-2,3-dihydroxy-4-(hydroxymethyl)cyclopentylamino)-2-(2,6-diazaspiro[3.3]heptan-2-yl)pyrimidin-4(3H)-one.HCl]: the IC50 was 6.5 nM.

Regarding `O=c1[nH]c(N2CCOCC2)nc(N[C@@H]2C[C@H](CO)[C@@H](O)[C@H]2O)c1-c1ccc2ccccc2n1` [Example 18, 6-((1R,2S,3R,4R)-2,3-Dihydroxy-4-(hydroxymethyl)cyclopentylamino)-2-morpholino-5-(quinolin-2-yl)pyrimidin-4(3H)-one.HCl], the IC50 amounted to 9.5 nM.

As for `O=c1[nH]c(N2CCCCC2)nc(N[C@@H]2C[C@H](CO)[C@@H](O)[C@H]2O)c1-c1ccc2ccccc2n1` [Example 19, 6-((1R,2S,3R,4R)-2,3-Dihydroxy-4-(hydroxymethyl)cyclopentylamino)-2-(piperidin-1-yl)-5-(quinolin-2-yl)pyrimidin-4(3H)-one.HCl], the IC50 amounted to 23 nM.

As to `O=c1[nH]c(NC2CCC2)nc(N[C@@H]2C[C@H](CO)[C@@H](O)[C@H]2O)c1-c1ccc2ccccc2n1` [Example 20, 2-(Cyclobutylamino)-6-((1R,2S,3R,4R)-2,3-dihydroxy-4-(hydroxymethyl)cyclopentylamino)-5-(quinolin-2-yl)pyrimidin-4(3H)-one.HCl], the IC50 was 19 nM.

On to `O=c1[nH]c(NC2CCC2)nc(N[C@@H]2C[C@H](CO)[C@@H](O)[C@H]2O)c1-c1ccccn1` [Example 21, 2-(Cyclobutylamino)-6-((1R,2S,3R,4R)-2,3-dihydroxy-4-(hydroxymethyl)cyclopentylamino)-5-(pyridin-2-yl)pyrimidin-4(3H)-one.HCl], for which the IC50 came to 590 nM.

Consider `O=c1[nH]c(NC2CCC2)nc(N[C@@H]2C[C@H](CO)[C@@H](O)[C@H]2O)c1-c1nccs1` [Example 22, 2-(Cyclobutylamino)-6-((1R,2S,3R,4R)-2,3-dihydroxy-4-(hydroxymethyl)cyclopentylamino)-5-(thiazol-2-yl)pyrimidin-4(3H)-one.HCl], for which the IC50 was found to be 1110 nM.

These data come from patent US9221809B2 (MERCK SHARP & DOHME CORP., priority 2011, dated 2015).
